In patent US8283356B2, “2,4- Di(hetero)-arylamino-pyrimidine derivatives as ZAP-70 and/or SYK inhibitors” (Novartis AG, priority 2003, dated 2012):

These compounds were tested against T1, ZAP-70 (Homo sapiens, UniProt P43403) (assay: ZAP-70 kinase assay (time-resolved fluorescence resonance energy transfer)). Conditions: 80 nM ZAP-70, 4 μM ATP, LAT-11 peptide substrate.
T1 construct: purchased Upstate Biotechnology, Lake Placid, N.Y
T1 sequence (P43403 1-619): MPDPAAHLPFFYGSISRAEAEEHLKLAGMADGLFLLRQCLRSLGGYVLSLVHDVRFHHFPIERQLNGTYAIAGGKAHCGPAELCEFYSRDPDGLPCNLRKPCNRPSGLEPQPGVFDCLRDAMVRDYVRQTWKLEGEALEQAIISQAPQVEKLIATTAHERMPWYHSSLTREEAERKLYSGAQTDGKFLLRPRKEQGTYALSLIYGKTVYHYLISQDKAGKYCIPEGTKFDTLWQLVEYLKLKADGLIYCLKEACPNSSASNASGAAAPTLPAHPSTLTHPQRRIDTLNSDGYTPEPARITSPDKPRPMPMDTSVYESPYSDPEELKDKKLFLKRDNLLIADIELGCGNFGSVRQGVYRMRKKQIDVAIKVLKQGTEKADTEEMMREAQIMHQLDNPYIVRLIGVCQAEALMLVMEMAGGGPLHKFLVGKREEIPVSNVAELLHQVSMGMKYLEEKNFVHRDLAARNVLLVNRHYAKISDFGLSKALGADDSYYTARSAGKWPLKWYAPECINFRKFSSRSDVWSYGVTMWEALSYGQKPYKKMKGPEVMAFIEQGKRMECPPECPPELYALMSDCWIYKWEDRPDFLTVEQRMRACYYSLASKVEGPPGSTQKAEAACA
Type: biochemical
Method: 1. ZAP-70 Cell-Free Kinase Assays
ZAP-70 and Lck (lymphoid T-cell protein tyrosine kinase) are commercially available from Upstate Biotechnology, Lake Placid, N.Y.
ZAP-70 Kinase assay: The activities of the compounds of invention are determined in a homogenous ZAP-70 kinase assay based on time-resolved fluorescence resonance energy transfer. Briefly, 80 nM ZAP-70 are incubated with 80 nM Lck and 4 μM ATP in ZAP-70 kinase buffer (20 mM Tris, pH 7.5, 10 μM Na3VO4, 1 mM DTT, 1 mM MnCl2, 0.01% bovine serum albumin, 0.05% Tween 20) for 1 hour at room temperature in a siliconized polypropylene tube. Then, the selective Lck inhibitor PP2 (4-amino-5-(4-chloro-phenyl)-7-(t-butyl)pyrazolo[3,4-d]pyrimidine; Alexis Biochemicals) is added (final concentration 1.2 μM) and incubated for further 10 min. Ten μl of this solution is mixed with the 10 μl biotinylated peptide LAT-11 (linker for activation of T cell prepared as disclosed in Example 1A of WO 02/12275, the contents of which, particularly with reference to Example 1A, is incorporated herein by reference; 1 μM) as substrate and 20 μl of serial dilutions of inhibitors and incubated for 4 hours at room temperature. The kinase reaction is terminated with 10 μl of a 10 mM EDTA solution in detection buffer (20 mM Tris, pH 7.5, 0.01% bovine serum albumin, 0.05% Tween 20). The detection phase is performed by addition of 50 μl europium (Eu)-labelled anti-phosphotyrosine antibody (e.g. Eu-PT66; final concentration 0.125 nM; Advant/Wallac) and 50 μl streptavidin-allophycocyanine (SA-APC; final concentration 40 nM) in detection buffer. After 1 hour incubation at room temperature fluorescence is measured, e.g., on the Victor2 Multilabel Counter (VVallac) at 665 nm. Background values (low control) are obtained in the absence of test samples and ATP and are subtracted from all values. Signals obtained in the absence of test samples are taken as 100% (high control). The inhibition obtained in the presence of test compounds is calculated as percent inhibition of the high control. The concentration of test compounds resulting in 50% inhibition (IC50) is determined from the dose-response curves.
Compound `CNc1cc(Nc2nccc(Nc3cccc(OC)c3S(N)(=O)=O)n2)ccc1C` [Example 139, 2-Methoxy-6-[2-(4-methyl-3-methyl-amino-phenylamino)-pyrimidin-4-ylamino]-benzenesulfonamide] has an IC50 of 37 nM.
`CN1CCN(CCOc2cccc(Nc3nccc(Nc4ccc5c(c4S(N)(=O)=O)OCCO5)n3)c2)CC1` [Example 11] showed an IC50 of 16 nM.
With `NS(=O)(=O)c1c(Nc2ccnc(Nc3ccc4c(c3)NCC4)n2)ccc2c1OCCO2` [Example 144, 6-[2-(2,3-Dihydro-1H-indol-6-ylamino)-pyrimidin-4-ylamino]-2,3-dihydro-benzo[1,4]dioxine-5-sulfonic acid amide] the IC50 was 21 nM.
With `COCCNc1cc(Nc2nccc(Nc3ccc4c(c3S(N)(=O)=O)OCCO4)n2)ccc1C` [Example 57] the IC50 was 13 nM.
In the case of `COc1cccc(Nc2ccnc(Nc3ccc4c(c3)NCC4)n2)c1S(N)(=O)=O` [Example 141, 2-[2-(2,3-Dihydro-1H-indol-6-ylamino)-pyrimidin-4-ylamino]-6-methoxy-benzenesulfonamide], the IC50 is reported as 183 nM.
`CNc1cc(Nc2nccc(Nc3ccc4c(c3S(N)(=O)=O)OCCO4)n2)ccc1C` [Example 140, 6-[2-(4-Methyl-3-methylamino-phenylamino)-pyrimidin-4-ylamino]-2,3-dihydro-benzo[1,4]dioxine-5-sulfonic acid amide] gave an IC50 of 10 nM.
